This is an account of results in patent publication US8236808B2, “Pyrazine derivatives as ENAC blockers” (Novartis AG, priority 2008, dated 2012).

Where a name gives a salt, the structure may show the parent alone.

The target of this assay is T1, epithelial sodium channel (ENaC) (Homo sapiens, UniProt P37088+P51168+P51170).
T1 construct: host or cells: primary human bronchial epithelial cells (HBECs), differentiated at the air-liquid interface
T1 sequence (P37088 1-669): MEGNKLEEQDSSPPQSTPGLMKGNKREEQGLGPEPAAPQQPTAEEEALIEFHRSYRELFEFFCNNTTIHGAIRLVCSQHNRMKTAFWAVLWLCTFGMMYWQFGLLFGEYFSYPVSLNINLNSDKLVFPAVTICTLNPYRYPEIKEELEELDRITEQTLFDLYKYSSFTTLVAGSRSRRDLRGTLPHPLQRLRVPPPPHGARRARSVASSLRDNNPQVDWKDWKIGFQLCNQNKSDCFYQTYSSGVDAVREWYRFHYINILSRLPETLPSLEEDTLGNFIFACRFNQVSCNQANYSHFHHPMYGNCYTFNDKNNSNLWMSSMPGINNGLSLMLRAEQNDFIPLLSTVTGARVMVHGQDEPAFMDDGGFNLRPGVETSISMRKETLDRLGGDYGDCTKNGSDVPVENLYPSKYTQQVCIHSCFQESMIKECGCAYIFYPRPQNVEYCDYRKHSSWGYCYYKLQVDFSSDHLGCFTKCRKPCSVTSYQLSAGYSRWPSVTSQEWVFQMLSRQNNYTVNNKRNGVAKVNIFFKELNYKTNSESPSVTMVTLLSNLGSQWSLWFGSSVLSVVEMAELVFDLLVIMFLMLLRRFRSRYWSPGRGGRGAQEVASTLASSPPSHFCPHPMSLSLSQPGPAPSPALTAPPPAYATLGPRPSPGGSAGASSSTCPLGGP
T1 sequence (P51168 1-640): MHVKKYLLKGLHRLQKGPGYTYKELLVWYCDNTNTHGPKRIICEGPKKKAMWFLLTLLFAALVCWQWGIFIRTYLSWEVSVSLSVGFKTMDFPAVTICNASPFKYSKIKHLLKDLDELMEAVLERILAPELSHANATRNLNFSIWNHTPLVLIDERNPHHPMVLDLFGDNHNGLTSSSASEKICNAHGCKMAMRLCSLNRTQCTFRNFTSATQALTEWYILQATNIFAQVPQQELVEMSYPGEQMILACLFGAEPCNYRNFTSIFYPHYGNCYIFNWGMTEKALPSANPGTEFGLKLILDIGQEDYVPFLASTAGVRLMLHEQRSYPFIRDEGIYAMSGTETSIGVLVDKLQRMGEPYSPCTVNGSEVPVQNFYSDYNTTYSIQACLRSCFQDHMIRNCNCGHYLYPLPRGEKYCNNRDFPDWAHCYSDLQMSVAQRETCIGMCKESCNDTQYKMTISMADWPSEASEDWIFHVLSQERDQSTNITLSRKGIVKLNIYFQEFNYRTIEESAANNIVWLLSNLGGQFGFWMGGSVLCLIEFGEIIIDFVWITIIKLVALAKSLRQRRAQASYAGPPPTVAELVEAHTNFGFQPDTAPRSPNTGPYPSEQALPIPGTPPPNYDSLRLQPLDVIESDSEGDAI
T1 sequence (P51170 1-649): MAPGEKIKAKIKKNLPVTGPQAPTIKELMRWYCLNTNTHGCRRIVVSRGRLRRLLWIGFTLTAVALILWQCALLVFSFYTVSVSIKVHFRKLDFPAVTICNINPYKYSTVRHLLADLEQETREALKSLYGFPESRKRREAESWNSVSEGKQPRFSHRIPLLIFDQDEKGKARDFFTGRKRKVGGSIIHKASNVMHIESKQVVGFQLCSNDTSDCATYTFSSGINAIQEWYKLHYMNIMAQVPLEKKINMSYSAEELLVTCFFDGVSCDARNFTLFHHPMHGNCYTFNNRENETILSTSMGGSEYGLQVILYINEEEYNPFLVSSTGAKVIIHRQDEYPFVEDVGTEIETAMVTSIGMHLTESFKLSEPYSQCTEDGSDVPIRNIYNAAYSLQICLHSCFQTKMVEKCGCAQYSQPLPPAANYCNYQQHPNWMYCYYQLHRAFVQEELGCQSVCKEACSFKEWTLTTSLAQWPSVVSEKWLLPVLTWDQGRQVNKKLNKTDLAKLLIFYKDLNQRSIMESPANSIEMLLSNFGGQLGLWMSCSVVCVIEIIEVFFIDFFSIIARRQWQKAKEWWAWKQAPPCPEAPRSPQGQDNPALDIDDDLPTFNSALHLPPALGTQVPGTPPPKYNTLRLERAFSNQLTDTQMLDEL
The experiment in a line: Short circuit current (ISC) measurements in human bronchial epithelial cells, inhibition of amiloride-sensitive ISC. It is filed as cell-based. To be noted: inhibition of the amiloride-sensitive ISC; HBECs cultured at air-liquid interface, Ussing chamber, compound added to apical chamber. How it is done: Compounds of formula (I), hereinafter referred to alternatively as “agents of the invention”, are useful as pharmaceuticals. In particular, the compounds have good ENaC blocker activity and may be tested in the following assays.
Human Bronchial Epithelial cells (HBECs) (Cambrex) were cultured under air-liquid interface conditions to provide a well differentiated mucociliary phenotype.
HBECs were cultured using a modification of the method described by Gray and colleagues (Gray et al., 1996). Cells were seeded in plastic T-162 flasks and were grown in bronchial epithelial cell growth medium (BEGM; Cambrex) supplemented with bovine pituitary extract (52 μg/mL), hydrocortisone (0.5 μg/mL), human recombinant epidermal growth factor (0.5 ng/mL), epinephrine (0.5 μg/mL), transferrin (10 μg/mL), insulin (5 μg/mL), retinoic acid (0.1 μg/mL), triiodothyronine ([…]), gentamycin (50 μg/mL) and amphotericin B (50 ng/mL). Medium was changed every 48 hours until cells were 90% confluent. Cells were then passaged and seeded (8.25×10^5 cells/insert) on polycarbonate Snapwell inserts (Costar) in differentiation media containing 50% DMEM in BEGM with the same supplements as above but without triiodothyronine and a final retinoic acid concentration of 50 nM (all-trans retinoic acid). Cells were maintained submerged for the first 7 days in culture, after which time they were exposed to an apical air interface for the remainder of the culture period. At this time, media was changed to DMEM:F12 media containing 2% v/v Ultroser G for the remainder of culture. Amphotericin B was removed from all media 3 feeds prior to use in the Ussing Chambers. Cells were used between days 7 and 21 after establishment of the apical-air interface. At all stages of culture, cells were maintained at 37° C. in 5% CO2 in an air incubator.
Snapwell inserts were mounted in Vertical Diffusion Chambers (Costar) and were bathed with continuously gassed Ringer solution (5% CO2 in O2; pH 7.4) maintained at 37° C. containing (in mM): 120 NaCl, 25 NaHCO3, 3.3 KH2PO4, 0.8 K2HPO4, 1.2 CaCl2, 1.2 MgCl2, and 10 glucose. The solution osmolarity was between 280 and 300 mOsmol/kg H2O for all physiological salt solutions used. Cells were voltage clamped to 0 mV (model EVC4000; WPI). RT was measured by applying a 1- or 2-mV pulse at 30-s intervals and calculating RT by Ohm's law. Data were recorded using a PowerLab workstation (ADInstruments).
Test compounds were prepared as a 10 mM stock solution in DMSO (95%). Serial 3-fold dilutions were freshly prepared in an appropriate vehicle (distilled H2O or Ringers solution). The initial concentration was added to the apical chamber as a 1000× concentrate in 5 μL, resulting in a final 1× concentration the 5 mL volume of the Ussing chamber. Subsequent additions of compound were added in a 3.3 μL volume of the 1000× serially diluted stock solution. At the completion of the concentration-response experiment, amiloride (10 μM) was added into the apical chamber to enable the total amiloride-sensitive current to be measured. An amiloride control IC50 was established at the start of each experiment.
Results are expressed as the mean % inhibition of the amiloride-sensitive ISC. Concentration-response curves were plotted and IC50 values generated using GraphPad Prism 3.02. Cell inserts were typically run in duplicate and the IC50 calculated on the mean % inhibition data.
The IC50 is the concentration that gives 50% inhibition. A low value points to greater potency. `C[N+](C)(CCCCNC(=O)Cc1ccc(OCc2ccccc2)cc1)CCNC(=O)c1nc(Cl)c(N)nc1N` [Example 63, {4-[2-(4-Benzyloxy-phenyl)-acetylamino]-butyl}-{2-[(3,5-diamino-6-chloro-pyrazine-2-carbonyl)-amino]-ethyl}-dimethyl-ammonium bromide] yielded an IC50 of 43 nM. That is a double-digit nanomolar value.

The molecule `C[N+](C)(CCCCNC(=O)CCc1ccc(Cl)cc1)CCNC(=O)c1nc(Cl)c(N)nc1N` [Example 65, {4-[3-(4-Chloro-phenyl)-propionylamino]-butyl}-{2-[(3,5-diamino-6-chloro-pyrazine-2-carbonyl)-amino]-ethyl}-dimethyl-ammonium hexafluorophosphate] came in with an IC50 of 150 nM.

Molecule `C[N+](C)(CCCCCNC(=O)Cc1ccc(OCc2ccccc2)cc1)CCNC(=O)c1nc(Cl)c(N)nc1N` [Example 78, {5-[2-(4-Benzyloxy-phenyl)-acetylamino]-pentyl}-{2-[(3,5-diamino-6-chloro-pyrazine-2-carbonyl)-amino]-ethyl}-dimethyl-ammonium bromide] returned an IC50 of 62 nM.

Molecule `C[N+](C)(CCCCCNS(=O)(=O)c1ccc(Cl)cc1)CCNC(=O)c1nc(Cl)c(N)nc1N` [Example 94, [5-(4-Chloro-benzenesulfonylamino)-pentyl]-{2-[(3,5-diamino-6-chloro-pyrazine-2-carbonyl)-amino]-ethyl}-dimethyl-ammonium bromide] had an IC50 of 250 nM.

The molecule `C[N+](C)(CCCCNS(=O)(=O)c1ccc(Cl)cc1)CCNC(=O)c1nc(Cl)c(N)nc1N` [Example 100, [4-(4-Chloro-benzenesulfonylamino)-butyl]-{2-[(3,5-diamino-6-chloro-pyrazine-2-carbonyl)-amino]-ethyl}-dimethyl-ammonium bromide] showed an IC50 of 290 nM. The IC50 values of the last two molecules are within 1.5-fold of each other.

On to `C[N+](C)(CCNC(=O)c1nc(Cl)c(N)nc1N)CCNS(=O)(=O)Cc1ccc(Cl)cc1` [Example 108, [2-(4-Chloro-phenylmethanesulfonylamino)-ethyl]-{2-[(3,5-diamino-6-chloro-pyrazine-2-carbonyl)-amino]-ethyl}-dimethyl-ammonium bromide], for which the half-maximal inhibitory concentration (IC50) was 540 nM.

The molecule `CCC[C@@H](CNC(=O)c1nc(Cl)c(N)nc1N)[N+](C)(C)CCCc1ccc(OC)cc1` [Example 120, ((S)-1-{[(3,5-Diamino-6-chloro-pyrazine-2-carbonyl)-amino]-methyl}-butyl)-[3-(4-methoxy-phenyl)-propyl]-dimethyl-ammonium trifluoroacetate] gave an IC50 of 4 nM.

Turning to `CCC[C@@H](CNC(=O)c1nc(Cl)c(N)nc1N)[N+](C)(C)CCCc1ccc(O)cc1` [Example 121, ((S)-1-{[(3,5-Diamino-6-chloro-pyrazine-2-carbonyl)-amino]-methyl}-butyl)-[3-(4-hydroxy-phenyl)-propyl]-dimethyl-ammonium trifluoroacetate], it took 10 nM to reach half-maximal inhibition (IC50). Against the preceding molecule, the IC50 is about 2.5-fold higher.

Regarding `C[N+](CCCc1ccc(O)cc1)(CCCc1ccc(O)cc1)CCNC(=O)c1nc(Cl)c(N)nc1N` [Example 122, {2-[(3,5-Diamino-6-chloro-pyrazine-2-carbonyl)-amino]-ethyl}-bis-[3-(4-hydroxy-phenyl)-propyl]-methyl-ammonium trifluoroacetate], half-maximal inhibition (IC50) was put at 130 nM. This IC50 lies about 13-fold higher than the previous one.

In turn, `CCC[C@@H](CNC(=O)c1nc(Cl)c(N)nc1N)[N+](C)(C)CCCc1ccc(OC[C@@H](O)CO)cc1` [Example 124, ((S)-1-{[(3,5-Diamino-6-chloro-pyrazine-2-carbonyl)-amino]-methyl}-butyl)-{3-[4-((S)-2,3-dihydroxy-propoxy)-phenyl]-propyl}-dimethyl-ammonium trifluoroacetate] had an IC50 of 25 nM.

`C[N+](CCCc1ccc(OCC(O)CO)cc1)(CCCc1ccc(OCC(O)CO)cc1)CCNC(=O)c1nc(Cl)c(N)nc1N` (centres unmarked) [Example 125, {2-[(3,5-Diamino-6-chloro-pyrazine-2-carbonyl)-amino]-ethyl}-bis-{3-[4-(2,3-dihydroxy-propoxy)-phenyl]-propyl}-methyl-ammonium trifluoroacetate] displayed an IC50 of 240 nM. Against the preceding molecule, the IC50 is about 9.6-fold higher.

In the case of `C[N+](C)(CCCc1ccc(OCC(O)CO)cc1)CCNC(=O)c1nc(Cl)c(N)nc1N` (centres unmarked) [Example 126, {2-[(3,5-Diamino-6-chloro-pyrazine-2-carbonyl)-amino]-ethyl}-{3-[4-(2,3-dihydroxy-propoxy)-phenyl]-propyl-dimethyl-ammonium trifluoroacetate], it took 2270 nM to reach half-maximal inhibition (IC50).

`C[N+](C)(CCNC(=O)c1nc(Cl)c(N)nc1N)CCc1ccccc1` [Example 129, {2-[(3,5-Diamino-6-chloro-pyrazine-2-carbonyl)-amino]-ethyl}-dimethyl-phenethyl-ammonium trifluoroacetate] yielded an IC50 of 1140 nM.

For the molecule `C[N+](C)(C)CCNC(=O)c1nc(Cl)c(N)nc1N` [Example 130, {2-[(3,5-Diamino-6-chloro-pyrazine-2-carbonyl)-amino]-ethyl}-trimethyl-ammonium iodide], the IC50 worked out at 5810 nM. This IC50 lies about 5.1-fold higher than the previous one.
